From patent EP0164700B1, “Bis(beta-hydroxy phenethyl)amines” (BEECHAM GROUP PLC, priority 1984, dated 1985) come the findings set out here.

Common to all, as to format: in vivo
Assay [1] concerns Female CFLP mice. Description: Anti-hyperglycaemic activity (glucose tolerance after subcutaneous glucose load). The following applies: 24 h fasted mice, glucose 1 g/kg s.c. 30 min after dosing, 2 hour period, compared with water controls. As to the method: Female CFLP mice, weighing approximately 25 g, were fasted for 24 hours prior to the study. The compound under study was administered orally as an aqueous solution to each of 6 mice. 30 minutes later a blood sample (10 µl) was obtained from the tail for the analysis of blood glucose. Immediately after taking this blood sample, glucose (1 g/kg body weight) was administered subcutaneously to each mouse. 6 mice were given water as a control. Blood samples were then obtained from each mouse at 30 minute intervals for 120 minutes.
Compounds that produce a significant (P<0.05) reduction of blood glucose, compared with control mice given water, at any time interval, are considered active. The area under the blood glucose curve over the 2 hour period after the administration of the glucose was calculated for the compounds and compared with the value for control animals.

The subject of assay [2] is Male Sprague-Dawley rats. Description: Effect on energy expenditure of rats. The following applies: Rattus norvegicus, po; for response vs control in vivo at 10.3 mg/kg: dose 10.3 mg/kg p.o.; for response vs control in vivo at 10.3 mg/kg / response vs control in vivo at 5.8 mg/kg / response vs control in vivo at 26.4 mg/kg / response vs control in vivo at 10.4 mg/kg / response vs control in vivo at 4.73 mg/kg / response vs control in vivo at 0.57 mg/kg / response vs control in vivo at 9.4 mg/kg: percentage of the rate of energy expenditure of the rats dosed with water, fasted rats; for response vs control in vivo at 5.8 mg/kg: dose 5.8 mg/kg p.o.; for response vs control in vivo at 26.4 mg/kg: dose 26.4 mg/kg p.o.; for response vs control in vivo at 10.4 mg/kg: dose 10.4 mg/kg p.o.; for response vs control in vivo at 4.73 mg/kg: dose 4.73 mg/kg p.o.; for response vs control in vivo at 0.57 mg/kg: dose 0.57 mg/kg p.o.; for response vs control in vivo at 9.4 mg/kg: dose 9.4 mg/kg p.o. As to the method:
Male Sprague-Dawley rats each weighing between 170-200 g were deprived of food for 16 hours before, and during the experiment. Water was provided ab lib at all times. The compounds were administered orally in water to 3 or 4 rats. A further 4 rats were dosed orally with water. The rats were placed in boxes through which air was drawn and the oxygen content of the air leaving the boxes was measured. The energy expenditure of the rats was calculated for 3 hours and for 21 hours after dosing from the volume of air leaving the boxes and its oxygen content, following the pinciples described by J. B. de V. Weir, J. Physiol. (London) 109, 1-9 (1949). The results are expressed as a percentage of the rate of energy expenditure of the rats dosed with water.

Assay [3] has as its system Female BALB/c mice. Description: Anti-obesity activity (weight of parametrial fat pads). The following applies: 5.8 mg/kg of diet, added to the diet for 3 days, treated animals compared with controls, mean of 9 values. As to the method: Female BALB/c mice were trained to feed on powdered oxoid for 1 week. They were then housed in threes and the compound under study was added to the diet for 3 days. Food was removed at 09.00h and the mice were killed at 11.00h. The parmetrial fat pads were weighed as pairs. The result is a mean of 9 values.
The compound of Example Number 3 gave a 38% reduction in weight of perigenital adipose tissue in. treated animals compared with controls when given at a dose of 5.8 mg/kg of diet.

Where [4] appears, read: 3 h, read-out: Mean Energy Expenditure (0—3h).
[5] abbreviates: 21 h, read-out: Mean Energy Expenditure (9—21h).

Each structure is given as a SMILES string. Structures can show the parent of a compound that is named as a salt. Where two headings read alike, the source gives them in different places.

Regarding `CCOC(=O)COc1ccc(C[C@@H](C)N(C[C@H](O)c2ccccc2)C[C@H](O)c2ccccc2)cc1.Cl` [Example 2, Ethyl 4-[(R)-2-[bis-[(R)-β-hydroxyphenethyl]amino]propyl]phenoxyacetate hydrochloride], the “% Reduction in area under Blood Glucose Curve” value (“% Reduction in area” for short) in assay [1] (dose 2.5 µmol/kg orally) amounted to 52%. The response vs control in vivo at 10.3 mg/kg in assay [2] (setting [4]) was found to be 146%; in assay [2] (setting [5]) it was 143%.

In the case of `CNC(=O)COc1ccc(C[C@@H](C)N(C[C@H](O)c2ccccc2)C[C@H](O)c2ccccc2)cc1.Cl` [Example 6, N-Methyl 4-[(R)-2-[bis-[(R)-β-hydroxyphenethyl]amino]propyl]phenoxyacetamide hydrochloride], the “% Reduction in area” value in assay [1] (dose 2.5 µmol/kg orally) is 52%. In addition, the response vs control in vivo at 10 mg/kg in assay [2] (setting [4]) is 154%; in assay [2] (setting [5]), 147%.

On to `CCOC(=O)COc1ccc(C[C@@H](C)N(C[C@H](O)c2cccc(Cl)c2)C[C@H](O)c2cccc(Cl)c2)cc1.Cl` [Example 3, Ethyl 4-[(R)-2-[bis-[(R)-β-hydroxy-3-chlorophenethyl]amino]propyl]phenoxyacetate hydrochloride], for which the “reduction in weight of perigenital adipose tissue” value in assay [3] was found to be 38%. The response vs control in vivo at 5.8 mg/kg in assay [2] (setting [4]) came out at 144%; in assay [2] (setting [5]), 132%.

For `CCOC(=O)COc1ccc(CC[C@@H](C)N(C[C@H](O)c2ccccc2)C[C@H](O)c2ccccc2)cc1.Cl` [Example 4, Ethyl 4-[(R)-3-[bis-[(R)-β-hydroxyphenethyl]amino]butyl]phenoxyacetate hydrochloride], in assay [1] (dose 12.5 µmol/kg orally), the “% Reduction in area” value is reported as 42%. For the same compound, the response vs control in vivo at 26.4 mg/kg in assay [2] (setting [4]) amounted to 111%; in assay [2] (setting [5]), 99%.

Regarding `CNCCOc1ccc(C[C@@H](C)N(C[C@H](O)c2ccccc2)C[C@H](O)c2ccccc2)cc1` [Example 7, N-Methyl 4-[(R)-2-[bis-[(R)-β-hydroxyphenethyl]amino]propyl]phenoxy ethylamine dihydrochloride], the “% Reduction in area” value in assay [1] (dose 2.5 µmol/kg orally) worked out at 50%. The response vs control in vivo at 10.4 mg/kg in assay [2] (setting [4]) stood at 145%; in assay [2] (setting [5]), 146%.

Regarding `C[C@H](COc1ccc(OCC(N)=O)cc1)N(C[C@H](O)c1ccccc1)C[C@H](O)c1ccccc1` [Example 8, 4-[(R)-2-[bis-[(R)-β-hydroxyphenethyl]amino]propoxy]phenoxyacetamide hydrochloride], the response vs control in vivo at 4.73 mg/kg was 113% in assay [2] (setting [4]) and 103% in assay [2] (setting [5]).

Take `COC(=O)COc1ccc(CC(C)N(CC(O)c2cccc(Cl)c2)CC(O)c2cccc(Cl)c2)cc1.Cl.O` (stereo not drawn) [Example 1, Methyl 4-[2-[bis-[β-hydroxy-3-chlorophenethyl]amino]propyl]phenoxyacetate hydrochloride monohydrate]: the “% Reduction in area” value in assay [1] (dose 5 µmol/kg orally) was found to be 55%. Besides, the figures for the response vs control in vivo at 0.57 mg/kg in assay [2] (setting [4]) and in assay [2] (setting [5]) were 132% and 110%, respectively.

For `C[C@H](Cc1ccc(OCCO)cc1)N(C[C@H](O)c1ccccc1)C[C@H](O)c1ccccc1` [Example 5, 4-[(R)-2-[bis-[(R)-β-hydroxyphenethyl]amino]propyl]phenoxyethanol hydrochloride], the “% Reduction in area” value in assay [1] (dose 2.5 µmol/kg orally) amounted to 54%. Besides, the response vs control in vivo at 9.4 mg/kg worked out at 159% in assay [2] (setting [4]) and 152% in assay [2] (setting [5]).
